One series relates to V. cholerae O1. The experiment in a line: Diffusion technique, inhibition zone on agar. Format: cell-based, Vibrio cholerae O1. To be noted: 1:10 dilution of aqueous hibiscus extract, 10 μL on plate, 35±1° C., 24 h. The protocol:
(§1) This procedure was repeated twice. […] Finally, each strain was 10-fold diluted with ISS.
(§2) 100 μL from the first dilution of the respective pathogen culture were inoculated in AST plates. Inoculum was completely distributed on agar surface by the surface extension technique. From the dry extract, a 10% solution of hibiscus calyxes was prepared with distilled water. 10 μL aliquots of this extract were placed on each inoculated plate. Four repetitions were carried out. After the extract was absorbed by agar the plates were incubated at 35±1° C. for 24 h. Finally, the diameter of each inhibition zone was measured on the inoculated surface.

Another series relates to S. sonnei. The experiment in a line: Diffusion technique, inhibition zone on agar. To be noted: 1:10 dilution of aqueous hibiscus extract, 10 μL on plate, 35±1° C., 24 h. Format: cell-based, Shigella sonnei. On the procedure: as §1, §2
A further series concerns S. choleraesuis. Kind of series: Diffusion technique, inhibition zone on agar. Type of series: cell-based, Salmonella choleraesuis. As to conditions: 1:10 dilution of aqueous hibiscus extract, 10 μL on plate, 35±1° C., 24 h. The protocol:
as §1, §2

Another series has as its system E. coli. Kind of series: Diffusion technique, inhibition zone on agar. Format: cell-based, Escherichia coli. To be noted: 1:10 dilution of aqueous hibiscus extract, 10 μL on plate, 35±1° C., 24 h. On the procedure: as §1, §2
The test system of the next series is Enterapathogenic E. coli. Kind of series: Diffusion technique, inhibition zone on agar. Type of series: cell-based, Escherichia coli. As to conditions: 1:10 dilution of aqueous hibiscus extract, 10 μL on plate, 35±1° C., 24 h. The protocol: as §1, §2
In another series the test system is Enterotoxigenic E. coli. The experiment in a line: Diffusion technique, inhibition zone on agar. Format: cell-based, Escherichia coli. To be noted: 1:10 dilution of aqueous hibiscus extract, 10 μL on plate, 35±1° C., 24 h. On the procedure: as §1, §2
In another series the test system is Enteroinvasive E. coli. Kind of series: Diffusion technique, inhibition zone on agar. Format: cell-based, Escherichia coli. As to conditions: 1:10 dilution of aqueous hibiscus extract, 10 μL on plate, 35±1° C., 24 h. On the procedure: as §1, §2
Another series has as its system S. typhimurium. The experiment in a line: Diffusion technique, inhibition zone on agar. Type of series: cell-based, Salmonella typhimurium. As to conditions: 1:10 dilution of aqueous hibiscus extract, 10 μL on plate, 35±1° C., 24 h. On the procedure: as §1, §2
The subject of another series is P. aeruginosa. The experiment in a line: Diffusion technique, inhibition zone on agar. Format: cell-based, Pseudomonas aeruginosa. To be noted: 1:10 dilution of aqueous hibiscus extract, 10 μL on plate, 35±1° C., 24 h. The protocol:
as §1, §2

The subject of the next series is S. aureus. The experiment in a line: Diffusion technique, inhibition zone on agar. Type of series: cell-based, Staphylococcus aureus. To be noted: 1:10 dilution of aqueous hibiscus extract, 10 μL on plate, 35±1° C., 24 h. On the procedure:
as §1, §2

Another series deals with S. flexneri. Kind of series: Diffusion technique, inhibition zone on agar. Format: cell-based, Shigella flexneri. To be noted: 1:10 dilution of aqueous hibiscus extract, 10 μL on plate, 35±1° C., 24 h. On the procedure: as §1, §2
A further series has as its system L. monocytogenes. Kind of series: Diffusion technique, inhibition zone on agar. To be noted: 1:10 dilution of aqueous hibiscus extract, 10 μL on plate, 35±1° C., 24 h. Type of series: cell-based, Listeria monocytogenes. The protocol: as §1, §2
A further series has as its system soybean seeds. The experiment in a line: Toxic effect on seed germination (FIGS. 1 to 6). Format: in vivo, soybean seeds (Vigna radiata L). On the procedure: Therefore, a study comparing the toxic effect of hypochlorite (1,000 and 10,000 ppm), hibiscus vegetal extract and acetic acid was performed, yielding the results shown in FIGS. 1 to 6.
The next series relates to native flora of alfalfa. The experiment in a line: Total count in non-inoculated alfalfa seed after disinfection. Type of series: cell-based. On the procedure: (§3) A comparison between the activity of aqueous extract and that of hypochlorite (1,000 and 10,000 ppm) was performed in non-inoculated seed. A total count was carried out in all cases.
A further series concerns native flora of soybeans. The experiment in a line: Total count in non-inoculated soybean seed after disinfection. Format: cell-based. On the procedure: as §3
The subject of another series is Salmonella sp. To be noted: submerging sprouts into 100 and 200 ppm hypochlorite solutions; cited from earlier work.
The subject of another series is S. Montevideo. To be noted: 500 μl AITC; cited from earlier work.
Another series concerns almost all flora. As to conditions: in food, within reasonable elevated limits of initial load; cited from earlier work.
In another series the test system is most pathogens. As to conditions: in food; cited from earlier work.
A further series relates to toxigenic fungus. To be noted: in food; cited from earlier work.
Where [1] appears, read: Table 9, hypochlorite 1,000 ppm.
[2] abbreviates: Table 11, hypochlorite 10,000 ppm.
Where [3] appears, read: Table 8, hypochlorite 1,000 ppm.
[4] abbreviates: Table 10, hypochlorite 10,000 ppm.

Take penicillin: the Inhibition diameter in the series with V. cholerae O1 came out at 13 mm; in the series on S. sonnei it was 14 mm; in the series on S. choleraesuis, 12 mm; in the series on E. coli, 13 mm; in the series on Enterapathogenic E. coli, 11 mm; with Enterotoxigenic E. coli it was 12 mm. Besides, the Inhibition diameter is listed as 12 mm in the series on Enteroinvasive E. coli; 15 mm in the series on S. typhimurium; 13 mm with P. aeruginosa; 13 mm with S. aureus; 12 mm in the series with S. flexneri; 12 mm with L. monocytogenes.
As for `OCl` [Hypochlorite, sodium hypochlorite], in the series on soybean seeds (FIGS. 2 and 4), the “structural damage of seeds” value is “structural damage”. In addition, the “decrease of the sprout yield” value in the series with soybean seeds (hypochlorite, FIG. 4 (10,000 ppm sodium hypochlorite solution)) turned out to be 87.63%. In addition, the “% of decrease” value with native flora of alfalfa (setting [1]) was determined as 6.95%; in the series with native flora of alfalfa (setting [2]), 17.31%; in the series on native flora of soybeans (setting [3]), 6.95%; with native flora of soybeans (setting [4]) it was 17.31%. In addition, the Decrease with native flora of alfalfa (setting [1]) amounted to 0.18 Log10 CFU/g; in the series on native flora of alfalfa (setting [2]) it was 0.40 Log10 CFU/g; with native flora of soybeans (setting [3]) it was 0.18 Log10 CFU/g; in the series on native flora of soybeans (setting [4]), 0.40 Log10 CFU/g. Moreover, the Final concentration amounted to 3.41 ± 0.38 Log10 CFU/g with native flora of alfalfa (Table 9, hypochlorite 1,000 ppm, initial 3.59, N = 3); 2.9 ± 0.56 Log10 CFU/g in the series on native flora of alfalfa (Table 11, hypochlorite 10,000 ppm, initial 3.30-3.31, N = 3); 2.41 ± 1.08 Log10 CFU/g in the series with native flora of soybeans (Table 8, hypochlorite 1,000 ppm, initial 2.59 ± 1.19, N = 3); 1.91 ± 1.23 Log10 CFU/g with native flora of soybeans (Table 10, hypochlorite 10,000 ppm, initial 2.31 ± 0.89, N = 3). For the same compound, the “reduction of Salmonella sp in sprouts” value with Salmonella sp was 1 Log10.
As for `C=CCN=C=S` [AITC], in the series on S. Montevideo, the “decrease of S. Montevideo on tomato cuticle” value was 8 Log.
With `CC(=O)O` [acetic acid], the “concentration that inhibits almost all flora” value with almost all flora is recorded as 1-2%. The “concentration that acts on most pathogens” value with most pathogens is reported as 0.1%. Moreover, the “concentration that has effects on toxigenic fungus” value in the series on toxigenic fungus was 0.5%.

Values taken from US11229224B2, “Phytochemical compositions used as disinfectants and food preservatives” (priority 2012, dated 2022).
